Laboratory results: ChEMBL document CHEMBL1201862, “PubChem BioAssay data set” (2004)
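Compound exposure: 48 hours, 5 concentrations, 96-well plates. GI50: concentration for 50% inhibition of growth.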 Active and inactive are the calls of the source. Cut-off read from the data, not from the text of the source: active = GI50 up to about 1.1 µM and inactive = higher.

Experiments:
Assay in all cases: NCI anticancer screen, dose series, 48 h
DU-145 = system: DU-145
SK-MEL-28 = system: SK-MEL-28
NCI-H226 = system: NCI-H226
OVCAR-8 = system: OVCAR-8
M14 = system: M14
OVCAR-5 = system: OVCAR-5
A549 = system: A549
HT-29 = system: HT-29
MOLT-4 = system: MOLT-4
SW-620 = system: SW-620
HCT-116 = system: HCT-116
CCRF-CEM = system: CCRF-CEM
OVCAR-3 = system: OVCAR-3
RPMI-8226 = system: RPMI-8226
T47D = system: T47D
SF-539 = system: SF-539
786-0 = system: 786-0
Malme-3M = system: Malme-3M
NCI-H522 = system: NCI-H522
BT-549 = system: BT-549

Measured: GI50

O/N=C1\CCc2nonc2\C1=N/Nc1ccccc1
inactive: DU-145 > 100 µM | SK-MEL-28 > 100 µM | NCI-H226 35.6 µM | OVCAR-8 > 100 µM | M14 > 100 µM | OVCAR-5 > 100 µM | A549 > 100 µM | HT-29 > 100 µM | MOLT-4 > 100 µM | SW-620 > 100 µM | HCT-116 > 100 µM | CCRF-CEM > 100 µM | OVCAR-3 > 100 µM | RPMI-8226 > 100 µM | T47D 57.3 µM | SF-539 > 100 µM | 786-0 > 100 µM | Malme-3M > 100 µM

Cc1nc(N)sc1/N=N/c1cc(Cl)c([N+](=O)[O-])cc1Cl
inactive: DU-145 13.6 µM | SK-MEL-28 10.7 µM | NCI-H226 14 µM | OVCAR-8 14.6 µM | M14 50.4 µM | OVCAR-5 31.3 µM | A549 12.8 µM | HT-29 12.4 µM | NCI-H522 15.5 µM | MOLT-4 8.24 µM | SW-620 16.4 µM | HCT-116 33.6 µM | CCRF-CEM 11.8 µM | OVCAR-3 15.6 µM | RPMI-8226 2.29 µM | T47D 35.9 µM | SF-539 17.3 µM | 786-0 19.7 µM | Malme-3M 12 µM

Cc1nc2c3c(ncn2n1)Oc1c(c(-c2ccccc2)nn1-c1ccccc1)C3c1ccc(Cl)cc1 (stereo not given)
inactive: DU-145 > 100 µM | SK-MEL-28 > 100 µM | NCI-H226 > 100 µM | OVCAR-8 56.9 µM | M14 79.3 µM | OVCAR-5 > 100 µM | A549 > 100 µM | HT-29 > 100 µM | MOLT-4 > 100 µM | SW-620 > 100 µM | HCT-116 > 100 µM | CCRF-CEM > 10 µM | OVCAR-3 > 100 µM | RPMI-8226 > 100 µM | T47D > 100 µM | SF-539 22.3 µM | 786-0 39 µM | Malme-3M 46.1 µM

Cc1ccc(N(C(=O)Nc2ccc(F)c(Cl)c2)C2=NCC(C)S2)cc1 (stereo not given)
inactive: DU-145 > 100 µM | SK-MEL-28 19.9 µM | OVCAR-8 48.2 µM | OVCAR-5 > 100 µM | A549 57.3 µM | HT-29 36 µM | MOLT-4 31.6 µM | SW-620 74 µM | HCT-116 38.6 µM | CCRF-CEM 42.2 µM | OVCAR-3 45.3 µM | RPMI-8226 > 10 µM | T47D 33 µM | SF-539 76.9 µM | 786-0 57.8 µM | Malme-3M 77.3 µM

C=CCCCN(C(=O)c1ccccc1)c1ccc(C(=O)OC)o1
inactive: DU-145 > 100 µM | NCI-H226 > 100 µM | OVCAR-8 > 100 µM | M14 > 100 µM | OVCAR-5 > 100 µM | A549 > 100 µM | HT-29 > 100 µM | NCI-H522 64.3 µM | MOLT-4 91.4 µM | HCT-116 78 µM | T47D 34 µM | SF-539 > 100 µM | 786-0 > 100 µM | Malme-3M > 100 µM

COC1OC(Cn2cc([N+](=O)[O-])nc2C)C(O)C(O)C1O (stereo not given)
inactive: DU-145 > 100 µM | SK-MEL-28 > 100 µM | M14 > 100 µM | OVCAR-5 > 100 µM | A549 > 100 µM | HT-29 > 100 µM | NCI-H522 > 100 µM | MOLT-4 > 100 µM | SW-620 > 100 µM | HCT-116 > 100 µM | CCRF-CEM > 100 µM | OVCAR-3 > 100 µM | RPMI-8226 > 100 µM | T47D > 100 µM | 786-0 > 100 µM | Malme-3M 5.93 µM

Cc1ccccc1Nc1nc2ccccc2nc1NS(=O)(=O)c1ccccc1
inactive: SK-MEL-28 > 100 µM | NCI-H226 > 100 µM | OVCAR-8 > 100 µM | M14 > 100 µM | OVCAR-5 > 100 µM | A549 > 100 µM | HT-29 > 100 µM | NCI-H522 > 100 µM | MOLT-4 > 100 µM | SW-620 > 100 µM | HCT-116 > 100 µM | CCRF-CEM > 100 µM | OVCAR-3 > 100 µM | RPMI-8226 > 100 µM | T47D > 100 µM | SF-539 59.7 µM | 786-0 > 100 µM | Malme-3M > 100 µM

CCOC(CN(C)C(=O)Nc1cccc2ccccc12)OCC
inactive: DU-145 > 10 µM | SK-MEL-28 > 10 µM | NCI-H226 > 10 µM | OVCAR-8 > 10 µM | M14 > 10 µM | A549 > 10 µM | HT-29 > 10 µM | NCI-H522 > 10 µM | MOLT-4 > 10 µM | SW-620 > 10 µM | HCT-116 > 10 µM | CCRF-CEM > 10 µM | OVCAR-3 > 10 µM | RPMI-8226 > 10 µM | T47D > 10 µM | SF-539 > 10 µM | 786-0 > 10 µM | Malme-3M > 10 µM

O=C1C2=Cc3ccccc3CCN2c2ccccc21
inactive: DU-145 > 75.3 µM | SK-MEL-28 > 49.9 µM | NCI-H226 13.9 µM | OVCAR-8 23.6 µM | M14 16.1 µM | OVCAR-5 61.4 µM | A549 49.2 µM | HT-29 14.9 µM | NCI-H522 40.2 µM | MOLT-4 18.7 µM | SW-620 20.4 µM | HCT-116 21.3 µM | CCRF-CEM 13.6 µM | OVCAR-3 91.4 µM | RPMI-8226 13.5 µM | BT-549 13.8 µM | SF-539 16.4 µM | 786-0 19.6 µM | Malme-3M 26.3 µM

CC1CN=C(Nc2ccc(S(N)(=O)=O)cc2)S1 (stereo not given)
inactive: DU-145 > 100 µM | SK-MEL-28 > 100 µM | OVCAR-8 > 100 µM | M14 > 100 µM | OVCAR-5 > 100 µM | A549 > 100 µM | HT-29 > 100 µM | MOLT-4 > 100 µM | SW-620 > 100 µM | HCT-116 > 100 µM | CCRF-CEM > 100 µM | OVCAR-3 > 100 µM | RPMI-8226 > 100 µM | T47D 60.1 µM | SF-539 > 100 µM | 786-0 > 100 µM | Malme-3M > 100 µM

O=C1/C(=C/c2ccccc2O)N=C(c2ccccc2)N1C1Nc2cc3c(cc2S1)NC(N1C(=O)/C(=C/c2ccccc2O)N=C1c1ccccc1)S3 (stereo not given)
inactive: DU-145 42.8 µM | SK-MEL-28 65.3 µM | NCI-H226 > 100 µM | OVCAR-8 30.7 µM | M14 38.3 µM | OVCAR-5 > 100 µM | HT-29 42.3 µM | NCI-H522 35.2 µM | MOLT-4 35.5 µM | SW-620 36.3 µM | HCT-116 27.3 µM | CCRF-CEM 39.7 µM | OVCAR-3 55.1 µM | RPMI-8226 26.1 µM | T47D 8.05 µM | SF-539 36.1 µM | 786-0 25.4 µM
